Laboratory results from PMC6941357, “An in vitro toolbox to accelerate anti-malarial drug discovery and development” (Malaria Journal, 2020).
In brackets after ≈: the same amount, converted by molar mass. Several values for one entry are separate records, joined by “and”; a condition that tells them apart may be missing. Equal values may be shown once. Read-outs that look alike come from different tables or passages of the source.

Experiments:
physchem = conditions: thermodynamic from solid; for solubility at 1 h: FaSSGF
Procedure: Solubility of each active pharmaceutical ingredient was evaluated at 37 °C in pH 7.4 phosphate buffered saline (prepared as described for the partitioning experiments), fasted (FaSSIF-V2) and fed (FeSSIF-V2) state simulated intestinal fluids and fasted state simulated gastric fluid (FaSSGF) as described by Jantratid et al.. […] Samples were vortexed and placed in a 37 °C incubator on an orbital mixer (IKA® VXR basic Vibrax® orbital mixer) set at 600 rpm. Sampling times were 1 h for FaSSGF or 5–6 h for FaSSIF-V2, FeSSIF-V2, and PBS. These times were used to reflect the maximal likely residence times within the stomach and small intestine, respectively. Sampling was carried out by centrifuging each sample at 10,000 rpm for 3 min, transferring 300 µL aliquots into fresh Eppendorf tubes and centrifuging these tubes again at 10,000 rpm for 3 min. Triplicate aliquots of the supernatant were then removed and diluted 1:2 in 50% aqueous methanol and then again in 50% aqueous acetonitrile to be within the analytical concentration range. Samples were analysed by LC–MS along with calibration standards (Additional file 1: Table S2).

[1] = Solubility limited absorbable dose (SLAD) calculation with predicted human jejunal Peff; conditions: for solubility: FaSSIF; for An (absorption number): Peff × tres/R, minimum 1; for SLAD: Ssi × V (500 mL) × Mp; for Permeability classification: based on ref 80 and control compounds; for Predicted human Peff: from Caco-2 Papp via calibration plot
Excerpt: Predicted Peff values were obtained from a calibration plot of literature Peff values vs measured Caco-2 Papp using either buffer or plasma as the transport medium (see Results section).

[2] = Plasma protein binding via ultracentrifugation (UC); format: in vitro ADME, human; conditions: human, pH 7.4, ultracentrifugation, read-out: Fraction unbound, human plasma
Procedure: Pooled human plasma (n = 3–4 donors) was obtained by centrifugation of blood (collected by the Australian Red Cross Blood Service, Melbourne, Australia or the Volunteer Blood Donor Registry, Clinical Translation Centre, Walter & Eliza Hall Institute of Medical Research, Parkville, Australia), or sourcing pooled plasma directly from commercial sources (Innovative Research Inc, MI) and stored frozen at − 80 °C.
An ultracentrifugation method adapted from a previous publication was initially used to assess plasma protein binding and binding in the other media. […] Additional ultracentrifuge tubes containing spiked matrix were maintained at 37 °C, 5% or 10% CO2 or normal atmosphere conditions, with aliquots being taken within 0.5 h of the start and at the end of ultracentrifugation to serve as controls for the assessment of stability and to obtain a measure of the total concentration (Ctotal). Following ultracentrifugation, the pH was checked and an aliquot of protein-free supernate was taken from each ultracentrifuge tube for determination of the unbound concentration (Cunbound).
Total matrix and protein free samples were analysed using a matrix matching approach whereby each sample was mixed in a 1:1 ratio with the opposite blank medium (i.e. blank total matrix or blank protein free buffer). For example, plasma samples were mixed with blank pH 7.4 buffer whereas plasma supernatant samples were mixed with blank plasma. Each of the sample sets were then assayed against a common calibration curve prepared in a 1:1 mixture of total matrix and protein free pH 7.4 buffer. […] The standard deviation for fu was calculated using the propagation of errors approach as described previously. The potential for compound degradation was assessed by comparing the average value for Ctotal at the start and end of the experiment.

[3] = target: T1, Albumax medium (lipid rich bovine serum albumin) (Bos taurus, UniProt P02769); test: Binding in Albumax medium via ultracentrifugation; format: in vitro ADME; conditions: bovine
T1 construct: purchased Gibco, Thermo Fisher Scientific
Procedure, shortened: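 Unbound fraction (fu) taken as protein-free supernate concentration over total concentration after ultracentrifuging compound-spiked Albumax at 37 °C (5% or 10% CO2, or air). Analysis used 1:1 mixing with the opposite blank matrix against a common pH 7.4 calibration; degradation judged by start versus end Ctotal.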

in vitro = conditions: human, pH 7.4, HLM CLint
Procedure, shortened: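 Compound depletion in human liver microsomes was followed by LC–MS at 2–60 min, with cofactor-free controls. First-order depletion rate constants gave in vitro CLint (µL/min/mg protein), corrected to unbound CLint using measured microsomal fu.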

CYP2C9 = CYP2C9 (Homo sapiens, UniProt P11712); test: Cytochrome P450 inhibition in human liver microsomes
Procedure, shortened: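 LC–MS measurement of the metabolite formed by one CYP isoform from its probe substrate in human liver microsomes, with and without test compound, provided the data. Values are percent inhibition of that metabolic pathway.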

[4] = Octanol/pH 7.4 buffer partition coefficient, shake flask; conditions: octanol/pH 7.4 buffer, pH 7.4
Procedure, shortened: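 Octanol stocks (3-30 mg/mL) were diluted 3- and 10-fold and shaken with equal volumes of pH 7.4 phosphate buffer (67 mM, in 43 mM NaCl) at 37 °C. Both phases were quantified by LC-MS against calibration standards. The coefficient is the mean octanol/buffer concentration ratio, with two time points confirming equilibrium.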

[5] = 37 °C, fassgf or other biorelevant
[6] = phosphate buffered saline pH 7.4, 37 °C, pH 7.4, aqueous buffer
[7] = neat pooled plasma, neat plasma
[8] = liver microsomes, human liver microsomes, average of n = 2 replicates, < 7 means < 15% loss over 60 min

T1 sequence (P02769 25-607): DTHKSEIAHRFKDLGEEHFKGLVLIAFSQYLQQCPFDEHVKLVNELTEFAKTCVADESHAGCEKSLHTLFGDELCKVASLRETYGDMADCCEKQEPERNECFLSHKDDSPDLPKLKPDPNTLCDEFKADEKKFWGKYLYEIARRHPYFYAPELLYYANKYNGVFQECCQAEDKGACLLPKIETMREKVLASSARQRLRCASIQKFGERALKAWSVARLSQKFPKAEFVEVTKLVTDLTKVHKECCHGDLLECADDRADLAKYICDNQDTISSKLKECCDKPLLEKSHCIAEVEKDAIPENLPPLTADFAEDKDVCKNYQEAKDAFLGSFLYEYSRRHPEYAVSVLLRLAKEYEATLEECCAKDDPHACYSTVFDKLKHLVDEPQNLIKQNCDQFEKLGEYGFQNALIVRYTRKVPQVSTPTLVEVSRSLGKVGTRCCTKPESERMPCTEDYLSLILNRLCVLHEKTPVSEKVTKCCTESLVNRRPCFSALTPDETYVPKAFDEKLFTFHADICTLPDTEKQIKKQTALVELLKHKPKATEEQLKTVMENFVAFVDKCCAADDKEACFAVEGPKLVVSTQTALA
CYP2C9, sequence (P11712 whole entry, canonical isoform): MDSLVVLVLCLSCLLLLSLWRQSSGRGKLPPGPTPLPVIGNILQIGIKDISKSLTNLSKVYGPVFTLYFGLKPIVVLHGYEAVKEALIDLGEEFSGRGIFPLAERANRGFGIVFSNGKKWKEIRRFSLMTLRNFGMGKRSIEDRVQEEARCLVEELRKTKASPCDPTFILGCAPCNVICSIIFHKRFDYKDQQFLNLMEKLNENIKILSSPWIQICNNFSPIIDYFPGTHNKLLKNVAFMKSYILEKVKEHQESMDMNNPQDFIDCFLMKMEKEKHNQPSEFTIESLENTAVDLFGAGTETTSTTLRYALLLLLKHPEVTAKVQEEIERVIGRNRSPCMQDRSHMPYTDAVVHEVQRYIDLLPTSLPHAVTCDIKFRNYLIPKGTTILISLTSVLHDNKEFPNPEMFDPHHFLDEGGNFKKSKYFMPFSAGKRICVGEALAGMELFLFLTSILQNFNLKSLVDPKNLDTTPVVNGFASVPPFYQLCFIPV

SMILES | solubility at 1 h (physchem; [5]) | solubility (physchem; FaSSIF-V2, 37 °C, fassif) | solubility (physchem; FeSSIF-V2, 37 °C, fessif) | solubility (physchem; [6]) | solubility [1] [µg/mL] | An (absorption number) [1] | SLAD [1] [mg] | Permeability classification [1] | Predicted human Peff [1] | IC50 (CYP2C9) [µM] | CYP2C9 % inhibition at max conc (CYP2C9; microsomes) | fraction unbound at […] [2, 7] | fraction unbound at […], 500 ng/mL ([3]; isolated protein, pH 7.4) | microsomal CLint at 1 µM (in vitro; [8]) [µL/min/mg] | other results
C[C@H]1[C@H](OC(=O)CCC(=O)O)O[C@@H]2O[C@@]3(C)CC[C@H]4[C@H](C)CC[C@@H]1[C@@]24OO3 [Artesunate] | 835 µM (≈ 321 µg/mL) | 1690 µg/mL and 4390 µM | 1720 µg/mL and 4490 µM | 1680 µg/mL and 4370 µM | 1690 (≈ 4400 µM) | 1.0 | 845 | Intermediate (50–84% absorption (intermediate)) | 0.66 10^−4 cm/s | > 20 | nmi |  |  |  | solubility (physchem; [5]): 321 µg/mL (≈ 835 µM); fraction unbound at […] ([2]; pooled plasma, instability evident, estimate only): 0.27 ± 0.008; fraction unbound at […], 500 ng/mL ([3]; Albumax medium, pH 7.4, instability evident, estimate only): 0.14 ± 0.007; microsomal CLint at 1 µM (in vitro; microsomes): 146 µL/min/mg
C[C@H]1Cc2c([nH]c3cc(Cl)c(F)cc23)[C@@]2(N1)C(=O)Nc1ccc(Cl)cc12 [KAE609] | 1540 µg/mL and 3940 µM | 111 µg/mL and 284 µM | 1240 µg/mL and 3180 µM | 30.4 µg/mL and 77.9 µM | 111 (≈ 284 µM) | 13 | 738 | High (> 85% absorption (high)) | 11 10^−4 cm/s | 5.5 |  | 0.057 | 0.044 ± 0.004 | 24.1 | Ki (CYP2C9): 4 µM
Clc1ccc2c(N3CCN(CCCN4CCN(c5ccnc6cc(Cl)ccc56)CC4)CC3)ccnc2c1 [Piperaquine] | > 2000 µg/mL and > 3700 µM | 103 µg/mL and 192 µM | 60.7 µg/mL and 113 µM | < 0.5 µg/mL and < 0.9 µM | 103 (≈ 192 µM) | 13 | 685 | High (> 85% absorption (high)) | 11 10^−4 cm/s |  |  | 0.042 | 0.019 ± 0.004 | 20.1 | 
COc1ncnc(NS(=O)(=O)c2ccc(N)cc2)c1OC [Sulfadoxine] | 324 µg/mL and 1040 µM | 858 µg/mL and 2770 µM | 474 µg/mL and 1530 µM | > 1900 µg/mL and > 6400 µM | 858 (≈ 2760 µM) | 2.2 | 959 | High (> 85% absorption (high)) | 1.9 10^−4 cm/s | > 20 | nmi | 0.036 ± 0.001 | 0.5 ± 0.03 | < 7 | 
O=C1C(O)=C([C@H]2CC[C@H](c3ccc(Cl)cc3)CC2)C(=O)c2ccccc21 [Atovaquone] | 0.26 µg/mL and 0.71 µM | 1.83 µg/mL and 4.99 µM | 6.41 µg/mL and 17.5 µM | < 0.05 µg/mL and < 0.1 µM | 1.83 (≈ 4.99 µM) | 13 | 12 | High (> 85% absorption (high)) | 11 10^−4 cm/s | > 20 |  | 0.002 |  | < 7 | logD [4]: 5.3; inhibition at 20 µM (CYP2C9; human, microsomes, pH 7.4): 26%
